Results taken from patent publication US20120040946A1 (APEX LABORATORIES PRIVATE LIMITED, priority 2009, published 2012).
Where a name gives a salt, the structure may show the parent alone.

What was measured:
[1] = system: gram-negative bacteria; conditions: cited from earlier work
[2] = system: bacterial cells; conditions: in vitro; cited from earlier work
[3] = 20° C.; cited from earlier work
[4] = Stability analysis of raw API (3 months, open & closed Petri dish) by stability indicating HPLC method and titration method; type: physicochemical; conditions: for Sodium Fusidate Assay(%) HPLC / Sodium Fusidate Assay(%) Titration / Percentage (%) HPLC / Percentage (%) Titration / Fusidic Acid Assay (%) HPLC / Fusidic Acid Assay (%) Titration / Percentage Drop (%) HPLC / Percentage Drop (%) Titration: after 3 months; for Percentage (%) HPLC / Percentage (%) Titration: Sodium Fusidate API; for Percentage Drop (%) HPLC / Percentage Drop (%) Titration: Fusidic acid API
[5] = system: Staphylococcus aureus; test: In vitro antimicrobial zone of inhibition study; type: cell-based
From the text: The antimicrobial/antibacterial activity of the product is confirmed by the in vitro Antimicrobial Zone of Inhibition studies for the product against Staphylococcusaureus. The details of the studies are detailed below in Table 16.

[6] = at the time of receipt of the API from the supplier

## CC(=O)O[C@H]1C[C@@]2(C)[C@@H](C[C@@H](O)[C@H]3[C@@]4(C)CC[C@@H](O)[C@@H](C)[C@@H]4CC[C@@]32C)/C1=C(\CCC=C(C)C)C(=O)O [Sodium Fusidate, 3μ,11μ,16β-Trihydroxy 29-nor-8μ, 9β, 13μ, 14β-dammara-17(20) [10,21-cis], 24-dien-21-oic acid 16-acetate, sodium salt]
[1]
  activity against gram-negative bacteria: virtually inactive
[2]
  time DNA synthesis continues after contact: 45 min
  time until bacterial cells stop dividing after contact with the antibiotic: ≤ 2 min
[3]
  solubility in water: soluble in one part of water
[4]; 45° C. (Closed)
  Sodium Fusidate Assay(%) HPLC: 92.96%
  Sodium Fusidate Assay(%) Titration: 97.16%
  Percentage (%) HPLC: 5.74%
  Percentage (%) Titration: 1.54%
[4]; 45° C. (Open)
  Sodium Fusidate Assay(%) HPLC: 92.65%
  Sodium Fusidate Assay(%) Titration: 97.07%
  Percentage (%) HPLC: 6.05%
  Percentage (%) Titration: 1.63%
[4]; 45° C. (open condition), sodium salt
  loss in 3 Months: about 6%
[4]; RT (Closed)
  Sodium Fusidate Assay(%) HPLC: 97.67%
  Sodium Fusidate Assay(%) Titration: 98.85%
  Percentage (%) HPLC: 1.03%
  Percentage (%) Titration: −0.15%
[4]; RT (Open)
  Sodium Fusidate Assay(%) HPLC: 96.25%
  Sodium Fusidate Assay(%) Titration: 97.71%
  Percentage (%) HPLC: 2.45%
  Percentage (%) Titration: 0.99%
[4]; Tables 1 and 2
  stability as an API compared with Fusidic acid: more stable than Fusidic acid
[4]; [6]
  Sodium Fusidate Initial (%): 98.7%
[4]; room temperature (open condition), sodium salt
  loss in 3 Months: about 2.5%

## CC1(C)S[C@@H]2[C@H](NC(=O)Cc3ccccc3)C(=O)N2[C@H]1C(=O)O [Penicillin G]
[5]; Dose 10 Units
  Inference: Resistant
  Zone Diameter Range (mm): 21-27 mm

## CC(=O)O[C@H]1C[C@@]2(C)[C@@H](C[C@@H](O)[C@H]3[C@@]4(C)CC[C@@H](O)[C@@H](C)[C@@H]4CC[C@@]32C)/C1=C(\CCC=C(C)C)C(=O)O [Fusidic Acid, Fusidic acid]
[5]; Dose 10 mcg
  Inference: Sensitive
  Zone Diameter Range (mm): 21-33 mm
[5]; Dose 20 mcg
  Inference: Sensitive
  Zone Diameter Range (mm): 20-30 mm
[5]; Dose 50 mcg
  Inference: Sensitive
  Zone Diameter Range (mm): 25-32 mm
[4]; 45° C. (Closed)
  Fusidic Acid Assay (%) HPLC: 92.12%
  Fusidic Acid Assay (%) Titration: 99.10%
  Percentage Drop (%) HPLC: 8.48%
  Percentage Drop (%) Titration: 1.50%
[4]; 45° C. (Open)
  Fusidic Acid Assay (%) HPLC: 89.52%
  Fusidic Acid Assay (%) Titration: 98.52%
  Percentage Drop (%) HPLC: 11.08%
  Percentage Drop (%) Titration: 2.08%
[4]; 45° C. (open condition)
  loss in 3 Months: about 11%
[4]; RT (Closed)
  Percentage Drop (%) HPLC: 6.23%
  Percentage Drop (%) Titration: 1.58%
  Fusidic Acid Assay (%) HPLC: 94.37%
  Fusidic Acid Assay (%) Titration: 99.02%
[4]; RT (Open)
  Percentage Drop (%) HPLC: 7.67%
  Percentage Drop (%) Titration: 1.39%
  Fusidic Acid Assay (%) HPLC: 92.93%
  Fusidic Acid Assay (%) Titration: 99.21%
[4]; [6]
  Fusidic Acid Initial (%): 100.6%
[4]; room temperature (open condition)
  loss in 3 Months: about 7.7%
